Target: T1, human kappa opioid receptor (Homo sapiens, UniProt P41145)
T1 construct: expressed in transfected cells; host or cells: CHO cells
Test: Binding assay, [3H]diprenorphine displacement on membranes from CHO cells (kappa assay)
Details: membranes from CHO cells expressing human kappa opioid receptor, ranges given when more than one data point
Procedure: Binding assays on membranes from CHO cells expressing either human kappa, mu or delta opioid receptors were performed according to standard procedures. Briefly, frozen cell paste (70-80-mgs per 96 well plate) is homogenized in 50 mM Tris HCl buffer (pH 7.4 @ 4 degrees C.) containing 2.0 mM MgCl2 using a Polytron and spun in a centrifuge at 40,000 g for ten minutes. The final pellet is resuspended in assay buffer (50 mM Tris HCl buffer (pH 7.4) containing 1 mM EDTA, 5 mM MgCl2). Incubations were initiated by the addition of tissue to 96-well plates containing test drugs and 0.4-1 nM [3H]diprenorphine in a final volume of 250 ul). Non-specific binding was determined by radioligand binding in the presence of a saturating concentration of naltrexone (10 uM). After one hour incubation period at room temperature, assay samples were rapidly filtered through Whatman GF/B filters and rinsed with ice-cold 50 mM Tris buffer (pH 7.4). Membrane bound [3H]diprenorphine levels were determined by liquid scintillation counting of the filters in BetaScint. […] Ki values were calculated according to the Cheng Prusoff equation, Ki=IC50/(1+(L/Kd)), where L is the concentration of the radioligand used in the experiment and the Kd value is the dissociation constant for the radioligand (determined previously by saturation analysis).

T1 sequence (P41145 whole entry): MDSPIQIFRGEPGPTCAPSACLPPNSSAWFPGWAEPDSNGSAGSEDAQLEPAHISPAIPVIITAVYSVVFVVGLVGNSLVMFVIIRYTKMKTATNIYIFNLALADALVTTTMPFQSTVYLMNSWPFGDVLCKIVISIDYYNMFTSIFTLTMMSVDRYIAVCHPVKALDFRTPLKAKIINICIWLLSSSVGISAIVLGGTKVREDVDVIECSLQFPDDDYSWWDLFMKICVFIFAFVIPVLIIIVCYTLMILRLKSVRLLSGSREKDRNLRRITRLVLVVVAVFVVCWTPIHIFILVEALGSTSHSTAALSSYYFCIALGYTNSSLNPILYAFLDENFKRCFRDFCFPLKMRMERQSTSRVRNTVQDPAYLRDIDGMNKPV

| SMILES | Ki [nM] |
| --- | --- |
| O=S(=O)(c1ccccc1-c1ccc(CNC2C[C@H]3CC[C@@H]2C3)cc1)N1CCCC1 (stereo partly drawn) [Example 4a, (1R,4S)-Bicyclo[2.2.1]hept-2-yl-[2′-(pyrrolidine-1-sulfonyl)-biphenyl-4-ylmethyl]-amine] | 0.58 to 0.66 |
| CC1(C)CCCN(Cc2ccc(-c3ccccc3S(=O)(=O)N3CCCC3)cc2)C1 [Example 4e, 3,3-Dimethyl-1-[2′-(pyrrolidine-1-sulfonyl)-biphenyl-4-ylmethyl]-piperidine] | 5.03 to 6.34 |
| O=S(=O)(c1ccccc1-c1ccc(CNC2CCOC2)cc1)N1CCCC1 (centres unmarked) [Example 4i, [2′-(Pyrrolidine-1-sulfonyl)-biphenyl-4-ylmethyl]-(tetrahydro-furan-3-yl)-amine] | 6.59 to 13 |
| CC(C)CNCc1ccc(-c2ccccc2S(=O)(=O)N2CCC[C@H]2C)cc1 [Example 4j, Isobutyl-[2′-((R)-2-methyl-pyrrolidine-1-sulfonyl)-biphenyl-4-ylmethyl]-amine] | 0.9 to 2.61 |
| C[C@@H]1COCCN1S(=O)(=O)c1ccccc1-c1ccc(CNCCC(C)(C)C)cc1 [Example 4k, (3,3-Dimethyl-butyl)-[2′-((R)-3-methyl-morpholine-4-sulfonyl)-biphenyl-4-ylmethyl]-amine] | 1.19 to 2.34 |
| O=S(=O)(c1ccccc1-c1ccc(CN2C[C@H]3CCC[C@@H]2C3)c(F)c1)N1CCCC1 [Example 4m, (1S,5R)-6-[3-Fluoro-2′-(pyrrolidine-1-sulfonyl)-biphenyl-4-ylmethyl]-6-aza-bicyclo[3.2.1]octane] | 1.41 to 6.84 |
| C[C@@H]1COCCN1S(=O)(=O)c1ccccc1-c1ccc(CNCCC(C)(C)C)c(F)c1 [Example 4o] | 2.11 to 5.08 |
| C[C@@H]1COCCN1S(=O)(=O)c1ccccc1-c1ccc(CNC2CC3CCC2C3)c(F)c1 (stereo partly drawn) [Example 4p, Bicyclo[2.2.1]hept-2-yl-[3-fluoro-2′-((R)-3-methyl-morpholine-4-sulfonyl)-biphenyl-4-ylmethyl]-amine] | 2.68 to 6.78 |
| CC(C)CNCc1ccc(-c2ccccc2S(=O)(=O)N2CCC[C@H]2C)cc1F [Example 4r, [3-Fluoro-2′-((R)-2-methyl-pyrrolidine-1-sulfonyl)-biphenyl-4-ylmethyl]-isobutyl-amine] | 3.46 to 8.28 |
| O=S(=O)(c1ncccc1-c1ccc(CNC2CC3CCC2C3)cc1)N1CCCC1 [Example 4t, (5S,6R)-Bicyclo[2.2.1]hept-2-yl-{4-[2-(pyrrolidine-1-sulfonyl)-pyridin-3-yl]-benzyl}-amine] | 5.76 |
| CC(C)CNCc1ccc(-c2ccccc2S(=O)(=O)N(C)C(C)C)cc1 [Example 4v, 4′-(Isobutylamino-methyl)-biphenyl-2-sulfonic acid isopropyl-methyl-amide] | 6.13 |
| CC(C)(C)CCNCc1ccc(-c2ncccc2S(=O)(=O)N2CCCC2)cc1 [Example 4w, (3,3-Dimethyl-butyl)-{4-[3-(pyrrolidine-1-sulfonyl)-pyridin-2-yl]-benzyl}-amine] | 10.3 |
| O=S(=O)(c1cccnc1-c1ccc(CNC2C[C@@H]3CC[C@H]2C3)cc1)N1CCCC1 (stereo partly drawn) [Example 4x, (1S,4R)-Bicyclo[2.2.1]hept-2-yl-{4-[3-(pyrrolidine-1-sulfonyl)-pyridin-2-yl]-benzyl}-amine] | 12.3 |
| COc1cc(-c2ccccc2S(=O)(=O)N2CCCC2)ccc1CNCC(C)C [Example 4y, Isobutyl-[3-methoxy-2′-(pyrrolidine-1-sulfonyl)-biphenyl-4-ylmethyl]-amine] | 12.5 to 24.8 |
